Among the data in PubChem BioAssay AID206 (DTP/NCI, 2004) are T/C values, retold here.

The subject of the test is nude mice, HT29 intrarenal xenograft, tumor weight T/C. The experiment in a line: NCI In Vivo Anticancer Drug Screen. Data for tumor model HT29;CX-1 Human Adenocarcinoma (MER+) (intrarenal inoculation) in NU/NU Swiss (nude) mice. Conditions: endpoint: mean tumor weight change, higher = larger tumour. An outline of the steps:
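Compounds were given to mice carrying transplantable tumors; a vehicle-dosed group served as control. The endpoint measured in each group was compared as a T/C quotient.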

[1] abbreviates: dose: 100.0 mg/kg/injection, schedule: Q01DX010 (sc), vehicle: Klucel (hydroxypropylcellulose) (HPC).
Where [2] appears, read: dose: 800.0 mg/kg/injection, schedule: Q01DX010 (sc), vehicle: Klucel (hydroxypropylcellulose) (HPC).
The mark [3] stands for this setting: dose: 37.5 mg/kg/injection, schedule: Q04DX004 (sc), vehicle: Klucel (hydroxypropylcellulose) (HPC).
Where [4] appears, read: dose: 75.0 mg/kg/injection, schedule: Q04DX004 (sc), vehicle: Klucel (hydroxypropylcellulose) (HPC).
Where [5] appears, read: dose: 150.0 mg/kg/injection, schedule: Q04DX004 (sc), vehicle: Klucel (hydroxypropylcellulose) (HPC).
Where [6] appears, read: dose: 600.0 mg/kg/injection, schedule: Q04DX004 (sc), vehicle: Klucel (hydroxypropylcellulose) (HPC).
Setting [7] is: dose: 1200.0 mg/kg/injection, schedule: Q04DX004 (sc), vehicle: Klucel (hydroxypropylcellulose) (HPC).
The mark [8] stands for this setting: dose: 2400.0 mg/kg/injection, schedule: Q04DX004 (sc), vehicle: Klucel (hydroxypropylcellulose) (HPC).
[9] abbreviates: dose: 300.0 mg/kg/injection, schedule: Q04DX004 (sc), vehicle: Klucel (hydroxypropylcellulose) (HPC).
The mark [10] stands for this setting: dose: 100.0 mg/kg/injection, schedule: Q04DX004 (sc), vehicle: Klucel (hydroxypropylcellulose) (HPC).
[11] abbreviates: dose: 400.0 mg/kg/injection, schedule: Q04DX004 (sc), vehicle: Klucel (hydroxypropylcellulose) (HPC).

Structures are written as SMILES. “And” between values parts separate entries of the source, which are not always exact repeats. Equal values may be shown once. Results filed as inconclusive are left out.

For `O=[N+]([O-])/C=C\c1ccc2c(c1)OCO2`, the T/C reads like this: under setting [1], 55 % of control; (dose: 400.0 mg/kg/injection, schedule: Q01DX010 (sc), vehicle: Klucel (hydroxypropylcellulose) (HPC)) 163 % of control; under setting [2], 77 % of control.

On to `O=C1C=CC(=O)N1c1ccc(Cl)cc1`, for which the T/C is, setting by setting: under setting [3], 70 % of control; under setting [4], 70 % of control; under setting [5], 106 % of control.

In the case of `NC(CCl)=NCC12CC3CC(CC(C3)C1)C2`, the T/C under setting [3] was 97 % of control and the T/C under setting [4] is 114 % of control.

On to `CC(C)=CCNc1ncnc2c1ncn2C1OC(CO)C(O)C1O` (stereo not given), for which the T/C (dose: 400.0 mg/kg/injection, schedule: Q04DX004 (sc), vehicle: suspension in saline) is 62 % of control.

For the molecule `OC1CCCC2CCC[N-]C12.OC1CCCC2CCC[N-]C12.[Mn+2]` (stereo not given), the T/C runs as follows: under setting [5], 114 % of control; under setting [6], 124 % of control.

For the molecule `C[CH2][Pb]([CH2]C)([CH2]C)[O]C(=O)COc1ccccc1`, the T/C reads like this: (dose: 4.5 mg/kg/injection, schedule: Q04DX004 (sc), vehicle: saline with Tween-80) 100 % of control; (dose: 9.0 mg/kg/injection, schedule: Q04DX004 (sc), vehicle: saline with Tween-80) 114 % of control; (dose: 18.0 mg/kg/injection, schedule: Q04DX004 (sc), vehicle: saline with Tween-80) 65 % of control.

Turning to `CCOC(=O)C(CC(C)C)NC(=O)C(N)Cc1ccc(N(CCCl)CCCl)cc1` (stereo not given), the T/C (dose: 7.5 mg/kg/injection, schedule: Q04DX004 (sc), vehicle: water) is 81 % of control; the T/C (dose: 15.0 mg/kg/injection, schedule: Q04DX004 (sc), vehicle: water) is 105 % of control and 118 % of control; the T/C (dose: 30.0 mg/kg/injection, schedule: Q04DX004 (sc), vehicle: water) is 82 % of control and 86 % of control; the T/C (dose: 60.0 mg/kg/injection, schedule: Q04DX004 (sc), vehicle: water) was 7 % of control.

As to `Cc1ccc(C2NC(=O)c3ccccc3N2)s1` (stereo not given), the T/C under setting [6] was 101 % of control; the T/C under setting [7] is 95 % of control; the T/C under setting [8] was 96 % of control; the T/C (dose: 4800.0 mg/kg/injection, schedule: Q04DX004 (sc), vehicle: Klucel (hydroxypropylcellulose) (HPC)) was 92 % of control.

As to `CCCCCn1c(C)cc(/C=C\c2ccc3cc(C)ccc3[n+]2C)c1C`, the T/C runs as follows: (dose: 1.0 mg/kg/injection, schedule: Q01DX010 (sc), vehicle: Klucel (hydroxypropylcellulose) (HPC)) 89 % of control; (dose: 2.0 mg/kg/injection, schedule: Q01DX010 (sc), vehicle: Klucel (hydroxypropylcellulose) (HPC)) 182 % of control; (dose: 4.0 mg/kg/injection, schedule: Q01DX010 (sc), vehicle: Klucel (hydroxypropylcellulose) (HPC)) 89 % of control.

`N=c1nc2n(cc1F)[C@@H]1O[C@H](CO)[C@@H](O)[C@@H]1O2`: the T/C is 61 % of control (dose: 300.0 mg/kg/injection, schedule: Q04DX004 (sc), vehicle: suspension in saline) and 60 % of control (dose: 1200.0 mg/kg/injection, schedule: Q04DX004 (sc), vehicle: suspension in saline).

Regarding `C1CN2CCC1CC2`, the T/C was 65 % of control (dose: 9.38 mg/kg/injection, schedule: Q04DX004 (sc), vehicle: saline with Tween-80) and 82 % of control (dose: 18.75 mg/kg/injection, schedule: Q04DX004 (sc), vehicle: saline with Tween-80).

As to `C[n+]1ccc(Nc2ccc(NC(=O)c3ccc(Nc4cc[n+](C)c5ccc(N)cc45)cc3)cc2)cc1`, the T/C runs as follows: (dose: 8.0 mg/kg/injection, schedule: Q04DX004 (sc), vehicle: distilled water + Tween-80) 74 % of control; (dose: 16.0 mg/kg/injection, schedule: Q04DX004 (sc), vehicle: distilled water + Tween-80) 211 % of control; (dose: 25.0 mg/kg/injection, schedule: Q04DX004 (sc), vehicle: distilled water + Tween-80) 118 % of control; (dose: 32.0 mg/kg/injection, schedule: Q04DX004 (sc), vehicle: distilled water + Tween-80) 303 % of control; (dose: 50.0 mg/kg/injection, schedule: Q04DX004 (sc), vehicle: distilled water + Tween-80) 51 % of control.

Consider `O=C1NC(O)CCN1C1OC(CO)C(O)C1O` (stereo not given), for which the T/C was 83 % of control (dose: 200.0 mg/kg/injection, schedule: Q01DX010 (sc), vehicle: water); 70 % of control (dose: 400.0 mg/kg/injection, schedule: Q01DX010 (sc), vehicle: water); 63 % of control (dose: 800.0 mg/kg/injection, schedule: Q01DX010 (sc), vehicle: water); 67 % of control (dose: 1600.0 mg/kg/injection, schedule: Q01DX010 (sc), vehicle: water).

As for `COc1cccc2c1C(=O)c1c(O)c3c(c(O)c1C2=O)C[C@@](O)(/C(C)=N\NC(=O)CO)C[C@@H]3OC1CC(N)C(O)C(C)O1` (stereo not given in full), the T/C is, setting by setting: (dose: 15.63 mg/kg/injection, schedule: Q04DX004 (sc), vehicle: saline) 52 % of control; (dose: 31.25 mg/kg/injection, schedule: Q04DX004 (sc), vehicle: saline) 16 % of control; (dose: 62.5 mg/kg/injection, schedule: Q04DX004 (sc), vehicle: saline) 18 % of control.

Take `Cn1cc(C2NC(=O)c3ccccc3N2)c2ccccc21` (stereo not given): the T/C under setting [9] was 97 % of control, the T/C under setting [6] was 116 % of control, the T/C under setting [7] is 60 % of control and the T/C under setting [8] is 94 % of control.

In the case of `CCCCc1ccc(-n2c(C)c(COC(=O)NC)c(COC(=O)NC)c2C)cc1`, the T/C by setting is: (dose: 50.0 mg/kg/injection, schedule: Q01DX010 (sc), vehicle: Klucel (hydroxypropylcellulose) (HPC)) 218 % of control; (dose: 50.0 mg/kg/injection, schedule: Q04DX004 (sc), vehicle: Klucel (hydroxypropylcellulose) (HPC)) 53 % of control; under setting [1], 89 % of control; under setting [10], 53 % of control; (dose: 200.0 mg/kg/injection, schedule: Q04DX004 (sc), vehicle: Klucel (hydroxypropylcellulose) (HPC)) 73 % of control; under setting [11], 49 % of control.

For `COc1ccc2ccccc2c1C1NC(=O)c2ccccc2N1` (stereo not given), the T/C is, setting by setting: under setting [5], 114 % of control; under setting [9], 115 % of control; under setting [6], 207 % of control; under setting [7], 201 % of control.

Turning to `O=C1NC2(CCCCC2)C(=O)N1CCN(CCCl)CCCl`, the T/C runs as follows: (dose: 6.0 mg/kg/injection, schedule: Q01DX010 (sc), vehicle: saline) 64 % of control; (dose: 24.0 mg/kg/injection, schedule: Q01DX010 (sc), vehicle: saline) 21 % of control and 23 % of control; (dose: 48.0 mg/kg/injection, schedule: Q01DX010 (sc), vehicle: saline) 23 % of control.

For the molecule `COc1ccc(CC2C(=O)NC(C)C(=O)N(C)C3C(=O)N(C)C(Cc4ccc(O)c(c4)Oc4ccc(cc4)C3O)C(=O)NC(C)C(=O)NC(C)C(=O)N2C)cc1` (stereo not given), the T/C (dose: 0.25 mg/kg/injection, schedule: Q01DX010 (sc), vehicle: saline with Tween-80) is 94 % of control.

Regarding `CC(=O)C(O)N1C(=O)C=CC1=O` (stereo not given), the T/C was 123 % of control (dose: 2.5 mg/kg/injection, schedule: Q01DX010 (sc), vehicle: saline); 107 % of control (dose: 5.0 mg/kg/injection, schedule: Q01DX010 (sc), vehicle: saline); 52 % of control (dose: 10.0 mg/kg/injection, schedule: Q01DX010 (sc), vehicle: saline); 30 % of control (dose: 20.0 mg/kg/injection, schedule: Q01DX010 (sc), vehicle: saline).

On to `CCCN1COC(OCC)C(C)(C)C1` (stereo not given), for which the T/C was 114 % of control (dose: 150.0 mg/kg/injection, schedule: Q04DX004 (sc), vehicle: saline with Tween-80); 79 % of control (dose: 300.0 mg/kg/injection, schedule: Q04DX004 (sc), vehicle: saline with Tween-80); 96 % of control (dose: 600.0 mg/kg/injection, schedule: Q04DX004 (sc), vehicle: saline with Tween-80).

Regarding `O=C1CC2(C(=O)N1CN1CCCCC1)c1ccccc1-c1ccccc12`, the T/C is, setting by setting: under setting [10], 43 % of control; under setting [11], 69 % of control; (dose: 800.0 mg/kg/injection, schedule: Q04DX004 (sc), vehicle: Klucel (hydroxypropylcellulose) (HPC)) 70 % of control.

In the case of `O=C([CH-]C(=O)C(F)(F)F)c1ccccc1.O=C([CH-]C(=O)C(F)(F)F)c1ccccc1.O=C([CH-]C(=O)C(F)(F)F)c1ccccc1.O=C([CH-]C(=O)C(F)(F)F)c1ccccc1.[Eu+3].c1ccncc1`, the T/C under setting [2] was 10 % of control and 20 % of control (2×).
